Patent publication US9610463B2, “Cosmetic or dermatological preparation comprising collagen, chitosan, glycosylaminoglycan and cell growth promoting peptide and/or cellular complex” (BEIERSDORF AG, priority 2009, dated 2017)
Several values for one entry are separate records, joined by “and”; a condition that tells them apart may be missing. Equal values may be shown once.

Tests used:
Type in all cases: cell-based
[1] = system: NIH3T3 fibroblast cell line; assay: ECM expression (ELISA): procollagen expression by fibroblast cells; settings: control = 100
Procedure: (§1) The effect of the addition of MPC and MPC+IDP4 on the extracellular matrix expression of procollagen, fibronectin, elastin, hyaluronic acid and laminine by the following cells was investigated: • 1. HacaT keratinocyte cell line (hyaluronic acid, laminine) • 2. NIH3T3 fibroblast cell line (procollagen, fibronectin, elastin).
(§2) Method: • (1) Cell seeding • (2) Starvation for 24 h with serum-free DMEM media • (3) Sample treatment • (4) Cultivation for 72 h • (5) Cell supernatant collection • (6) Assay
(§3) Assay (ELISA): • (a) Coating with capture antibody • (b) Blocking (blocking solution) • (c) Aspiration and washing each well five times • (d) Addition of sample and standard to each well • (e) Aspiration and washing each well five times • (f) Addition of conjugate to each well • (g) Aspiration and washing each well five times • (h) Addition of substrate solution to each well • (i) Addition of stop solution to each well • (j) Reading of optical density at 450 nm
as §1, with “GPVE” for “MPC”, “GPVE+IDP4” for “MPC+IDP4”
as §1, with “GPVE/MPC” for “the addition of MPC”, “GPVE/MPC+IDP4” for “MPC+IDP4”

[2] = system: HacaT keratinocyte cell line; assay: ECM expression (ELISA): laminine expression by keratinocyte cells; settings: control = 100
Procedure: as §1, §2, §3
as §1, with “GPVE” for “MPC”, “GPVE+IDP4” for “MPC+IDP4”
as §1, with “GPVE/MPC” for “the addition of MPC”, “GPVE/MPC+IDP4” for “MPC+IDP4”

mesenchymal stem cells = assay: Protective effect against H2O2 (anti-apoptosis effect); settings: W/O H2O2; With H2O2 0% MPC = 100
Procedure: The protective (anti-apoptosis) effect of the addition of MPC and MPC+IDP4 on mesenchymal stem cells against H2O2 (free radical former) was tested.
Method: • (1) Cell seeding • (2) Starvation for 24 h with serum-free DMEM media • (3) Sample treatment • (4) Cultivation for 24 h • (5) Treatment with 5 mM H2O2 • (6) Incubation for 24 h • (7) Cell growth assay

[3] = system: HacaT keratinocyte cell line; assay: Cell growth assay, HacaT keratinocyte cell line
Procedure: (§4) The effect of the addition of MPC vs. (MPC+IDP4), GPVE vs. (GPVE+IDP4), and GPVE/MPC vs. (GPVE/MPC=IDP4) on the growth of the following cells was investigated: • 1. HacaT keratinocyte cell line • 2. NIH3T3 fibroblast cell line • 3. MSC (mesenchymal stem cells).
(§5) Method: • (1) Cell seeding • (2) Starvation for 24 h with serum-free DMEM media • (3) Sample treatment • (4) Cultivation for 72 h • (5) Cell harvesting • (6) Cell growth assay

[4] = system: NIH3T3 fibroblast cell line; assay: ECM expression (ELISA): fibronectin expression by fibroblast cells; settings: control = 100
Procedure: as §1, §2, §3
as §1, with “GPVE” for “MPC”, “GPVE+IDP4” for “MPC+IDP4”
as §1, with “GPVE/MPC” for “the addition of MPC”, “GPVE/MPC+IDP4” for “MPC+IDP4”

[5] = system: MSC (mesenchymal stem cells); assay: Cell growth assay, mesenchymal stem cells
Procedure: as §4, §5

[6] = system: HacaT keratinocyte cell line; assay: ECM expression (ELISA): hyaluronic acid expression by keratinocyte cells; settings: control = 100
Procedure: Method: • (1) Cell seeding • (2) Starvation for 24 h with serum-free DMEM media • (3) Sample treatment • (4) Cultivation for 72 h • (5) Cell supernatant collection • (6) Assay […]

[7] = system: NIH3T3 fibroblast cell line; assay: ECM expression (ELISA): elastin expression by fibroblast cells; settings: control = 100
Procedure: as §1, §2, §3
as §1, with “GPVE” for “MPC”, “GPVE+IDP4” for “MPC+IDP4”
as §1, with “GPVE/MPC” for “the addition of MPC”, “GPVE/MPC+IDP4” for “MPC+IDP4”

[8] = system: NIH3T3 fibroblast cell line; assay: Cell growth assay, NIH3T3 fibroblast cell line
Procedure: as §4, §5

[9] = alone at the concentration employed (1 μg)

oligopeptide-21 [IDP4]
procollagen % ([1]; 10 ng/ml): 175%
procollagen % ([1]; 100 ng/ml): 226%
procollagen % ([1]; 1 μg/ml): 302%
procollagen % ([1]; 10 μg/ml): 333%
laminine % ([2]; 10 ng/ml): 115%
laminine % ([2]; 100 ng/ml): 135%
laminine % ([2]; 1 μg/ml): 175%
laminine % ([2]; 10 μg/ml): 177.5%
cell growth, MSC (mesenchymal stem cells): 175
growth, Haca T (%) ([3]; 10 μg/ml, control = 100): 148%
significance of increase in growth, keratinocyte cell line [3, 9]: did not afford any statistically significant increase in growth
fibronectin % ([4]; 10 ng/ml): 101%
fibronectin % ([4]; 100 ng/ml): 105%
fibronectin % ([4]; 1 μg/ml): 116%
fibronectin % ([4]; 10 μg/ml): 158%
growth, MSC (%) ([5]; 10 μg/ml, control = 100): 145%
significance of increase in growth, mesenchymal stem cells [5, 9]: did not afford any statistically significant increase in growth
hyaluronic acid % ([6]; 10 ng/ml): 110%
hyaluronic acid % ([6]; 100 ng/ml): 137.5%
hyaluronic acid % ([6]; 1 μg/ml): 150%
hyaluronic acid % ([6]; 10 μg/ml): 160%
elastin % ([7]; 10 ng/ml): 131%
elastin % ([7]; 100 ng/ml): 127%
elastin % ([7]; 1 μg/ml): 137%
elastin % ([7]; 10 μg/ml): 131% and 137%
growth, NIH3T3 (%) ([8]; 10 μg/ml, control = 100): 260%
significance of increase in growth, fibroblast cell line [8, 9]: did not afford any statistically significant increase in growth
